Laboratory results published in publication PMC7865522, “Analyzing Kinase Similarity in Small Molecule and Protein Structural Space to Explore the Limits of Multi-Target Screening” (Molecules, 2021).

What was measured:
EGFR-wt = target: T1, EGFR-wt (Homo sapiens, UniProt P00533); assay: HTRF KinEASE-TK IC50 determination (Rauh Lab); format: biochemical; details: ATP at Km (9.5 µM), racemate tested, read-out: IC50 ± s.d., EGFR
T1 construct: purchased Carna Biosciences lot13CBS-0005K
Procedure: IC 50 determinations for EGFR, its mutants and ErbB2-insYVMA (Carna Biosciences, lot13CBS-0005K for EGFR-wt; Carna, lot13CBS-0537B for EGFR-L858R; Carna, lot12CBS-0765B for EGFR-L858R/T790M; and ProQinase, lot1525-0000-1/003 for ErbB2-insYVMA) were performed with the HTRF KinEASE-TK assay from Cisbio according to the manufacturer’s instructions. Briefly, the amount of kinase in each reaction well was set to 0.60 ng EGFR-wt (0.67 nM), 0.10 ng EGFR-L858R (0.11 nM), 0.07 ng EGFR-T790M/L858R (0.08 nM), or 0.01 ng ErbB2-insYVMA (0.01 nM). An artificial substrate peptide (TK-substrate from Cisbio) was phosphorylated by EGFR or ErbB2. After completion of the reaction (reaction times: 25 min for EGFR-wt, 15 min for L858R, 20 min for L858R/T790M, and 40 min for ErbB2-insYVMA), the reaction was stopped by addition of buffer containing EDTA as well as an anti-phosphotyrosine antibody labeled with europium cryptate and streptavidin labeled with the fluorophore XL665. FRET between europium cryptate and XL665 was measured after an additional hour of incubation to quantify the phosphorylation of the substrate peptide. […] Kinase and inhibitor were preincubated for 30 min before the reaction was started by addition of ATP and substrate peptide. An EnVision multimode plate reader (Perkin Elmer) was used to measure the fluorescence of the samples at 620 nm (Eu ^3+ -labeled antibody) and 665 nm (XL665-labeled streptavidin) 50 µs after excitation at 320 nm. The quotient of both intensities for reactions made with eight different inhibitor concentrations was then analyzed using the Quattro Software Suite for IC 50 -determination. Each reaction was performed in duplicate, and at least three independent determinations of each IC 50 were made.

PI3K = PI3K (Homo sapiens, UniProt P42336); assay: Eurofins in vitro kinase inhibition assay (HTRF, PIP3 displacement); format: biochemical; set-up: purchased Eurofins Cerep (contract assay); details: compound 20 µM; mean (SD); above 50% significant, 25-50% weak
How it was run: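 Read-out is percent inhibition of control activity, given as mean (SD), with each compound tested at 20 µM. EGFR, ErbB2 and BRAF phosphorylation of a substrate analog was measured in the presence of ATP, while PI3K product PIP3 was quantified by HTRF competition with biotinylated PIP3.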

EGFR = target: T2, EGFR (Homo sapiens, UniProt P00533); assay: DiscoverX KINOMEscan competition binding assay; details: compound 10 µM; lower values = higher affinity; below 35% = significant binding
T2 construct: purchased DiscoverX (KINOMEscan service); host or cells: E. coli BL21-derived host (T7 phage) or HEK-293
T2 sequence (P00533 25-1210): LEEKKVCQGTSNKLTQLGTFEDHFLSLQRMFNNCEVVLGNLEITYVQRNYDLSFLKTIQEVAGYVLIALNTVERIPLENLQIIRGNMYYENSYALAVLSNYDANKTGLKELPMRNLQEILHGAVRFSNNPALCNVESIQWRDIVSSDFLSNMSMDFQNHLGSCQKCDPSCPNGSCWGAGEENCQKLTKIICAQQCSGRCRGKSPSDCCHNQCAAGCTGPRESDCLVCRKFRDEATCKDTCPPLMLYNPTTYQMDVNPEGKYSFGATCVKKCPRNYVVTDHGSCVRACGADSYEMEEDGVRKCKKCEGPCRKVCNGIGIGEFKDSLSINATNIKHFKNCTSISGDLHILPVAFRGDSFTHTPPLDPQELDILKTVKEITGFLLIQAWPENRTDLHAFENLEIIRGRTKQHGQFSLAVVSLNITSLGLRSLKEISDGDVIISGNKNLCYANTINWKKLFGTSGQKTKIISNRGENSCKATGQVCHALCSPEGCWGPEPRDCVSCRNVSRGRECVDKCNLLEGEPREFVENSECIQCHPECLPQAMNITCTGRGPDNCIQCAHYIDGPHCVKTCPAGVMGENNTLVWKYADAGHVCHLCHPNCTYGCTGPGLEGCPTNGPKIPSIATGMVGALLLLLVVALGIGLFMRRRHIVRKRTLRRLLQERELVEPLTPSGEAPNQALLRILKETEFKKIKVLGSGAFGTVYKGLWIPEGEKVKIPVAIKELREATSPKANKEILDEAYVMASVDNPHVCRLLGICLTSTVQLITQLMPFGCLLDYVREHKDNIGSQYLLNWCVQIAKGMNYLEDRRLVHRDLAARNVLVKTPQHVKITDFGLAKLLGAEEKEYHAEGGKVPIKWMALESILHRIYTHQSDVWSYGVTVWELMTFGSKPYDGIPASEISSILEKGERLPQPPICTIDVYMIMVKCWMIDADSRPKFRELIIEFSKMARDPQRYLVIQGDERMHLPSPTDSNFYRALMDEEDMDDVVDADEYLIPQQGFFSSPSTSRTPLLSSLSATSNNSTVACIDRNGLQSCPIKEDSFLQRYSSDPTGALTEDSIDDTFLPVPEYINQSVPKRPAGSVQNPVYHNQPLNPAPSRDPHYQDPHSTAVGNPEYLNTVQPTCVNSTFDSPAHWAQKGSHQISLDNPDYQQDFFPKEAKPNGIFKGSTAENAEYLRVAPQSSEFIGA
How it was run: (§1)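 We measured displacement of kinase from a resin-bound standard ligand by 10 µM compound after 1 h incubation at room temperature, with qPCR detection of eluted kinase. Values below 35% of control count as significant binding.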

BRAF = target: T3, BRAF (Homo sapiens, UniProt P15056); assay: DiscoverX KINOMEscan competition binding assay; details: 10 µM; Table 3; read-out: % ctrl. activity at 10 µM, BRAF (DiscoverX), printed as symbol
T3 construct: purchased DiscoverX (KINOMEscan service); host or cells: E. coli BL21-derived host (T7 phage) or HEK-293
How it was run: as §1

VEGFR2 = target: T4, VEGFR2 (Homo sapiens, UniProt P35968); assay: DiscoverX KINOMEscan competition binding assay; details: compound 10 µM; lower values = higher affinity; below 35% = significant binding
T4 construct: purchased DiscoverX (KINOMEscan service); host or cells: E. coli BL21-derived host (T7 phage) or HEK-293
T4 sequence (P35968 20-1356): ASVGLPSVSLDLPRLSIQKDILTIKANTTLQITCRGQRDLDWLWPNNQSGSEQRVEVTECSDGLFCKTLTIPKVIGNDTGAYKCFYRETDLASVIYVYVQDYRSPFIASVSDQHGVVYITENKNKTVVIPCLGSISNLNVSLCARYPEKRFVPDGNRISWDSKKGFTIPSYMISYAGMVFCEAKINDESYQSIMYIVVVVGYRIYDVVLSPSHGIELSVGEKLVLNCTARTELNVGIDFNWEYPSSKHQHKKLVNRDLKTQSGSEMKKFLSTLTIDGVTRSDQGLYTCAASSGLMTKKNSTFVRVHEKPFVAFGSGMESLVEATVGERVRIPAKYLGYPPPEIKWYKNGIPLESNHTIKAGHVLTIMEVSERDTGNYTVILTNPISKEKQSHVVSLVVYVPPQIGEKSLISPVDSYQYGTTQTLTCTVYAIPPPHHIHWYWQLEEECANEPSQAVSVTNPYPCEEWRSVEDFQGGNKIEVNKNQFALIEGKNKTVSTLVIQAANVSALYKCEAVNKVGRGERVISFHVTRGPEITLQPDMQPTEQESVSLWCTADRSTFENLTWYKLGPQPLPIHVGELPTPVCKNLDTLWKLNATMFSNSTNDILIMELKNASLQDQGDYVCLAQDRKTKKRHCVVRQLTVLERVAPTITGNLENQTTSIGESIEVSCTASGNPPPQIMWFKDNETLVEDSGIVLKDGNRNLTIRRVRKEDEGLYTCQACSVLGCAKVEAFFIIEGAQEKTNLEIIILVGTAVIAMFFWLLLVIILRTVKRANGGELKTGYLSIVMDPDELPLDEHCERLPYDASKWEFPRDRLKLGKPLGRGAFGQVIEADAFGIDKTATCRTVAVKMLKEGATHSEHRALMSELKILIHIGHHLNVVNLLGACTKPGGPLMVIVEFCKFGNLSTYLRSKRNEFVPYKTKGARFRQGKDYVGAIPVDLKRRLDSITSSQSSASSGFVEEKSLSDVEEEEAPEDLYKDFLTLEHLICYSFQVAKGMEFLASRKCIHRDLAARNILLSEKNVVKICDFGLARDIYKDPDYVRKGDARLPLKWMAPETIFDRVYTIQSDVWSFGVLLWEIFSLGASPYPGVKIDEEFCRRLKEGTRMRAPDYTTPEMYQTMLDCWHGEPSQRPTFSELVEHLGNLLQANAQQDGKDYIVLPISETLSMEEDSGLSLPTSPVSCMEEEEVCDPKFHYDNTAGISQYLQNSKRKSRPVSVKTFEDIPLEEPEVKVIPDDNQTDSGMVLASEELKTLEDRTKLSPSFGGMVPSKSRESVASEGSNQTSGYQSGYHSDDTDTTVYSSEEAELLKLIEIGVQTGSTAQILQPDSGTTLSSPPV
How it was run: as §1

ErbB2 = target: T5, ErbB2 (Homo sapiens, UniProt P04626); assay: DiscoverX KINOMEscan competition binding assay; details: compound 10 µM; lower values = higher affinity; below 35% = significant binding
T5 construct: purchased DiscoverX (KINOMEscan service); host or cells: E. coli BL21-derived host (T7 phage) or HEK-293
T5 sequence (P04626 23-1255): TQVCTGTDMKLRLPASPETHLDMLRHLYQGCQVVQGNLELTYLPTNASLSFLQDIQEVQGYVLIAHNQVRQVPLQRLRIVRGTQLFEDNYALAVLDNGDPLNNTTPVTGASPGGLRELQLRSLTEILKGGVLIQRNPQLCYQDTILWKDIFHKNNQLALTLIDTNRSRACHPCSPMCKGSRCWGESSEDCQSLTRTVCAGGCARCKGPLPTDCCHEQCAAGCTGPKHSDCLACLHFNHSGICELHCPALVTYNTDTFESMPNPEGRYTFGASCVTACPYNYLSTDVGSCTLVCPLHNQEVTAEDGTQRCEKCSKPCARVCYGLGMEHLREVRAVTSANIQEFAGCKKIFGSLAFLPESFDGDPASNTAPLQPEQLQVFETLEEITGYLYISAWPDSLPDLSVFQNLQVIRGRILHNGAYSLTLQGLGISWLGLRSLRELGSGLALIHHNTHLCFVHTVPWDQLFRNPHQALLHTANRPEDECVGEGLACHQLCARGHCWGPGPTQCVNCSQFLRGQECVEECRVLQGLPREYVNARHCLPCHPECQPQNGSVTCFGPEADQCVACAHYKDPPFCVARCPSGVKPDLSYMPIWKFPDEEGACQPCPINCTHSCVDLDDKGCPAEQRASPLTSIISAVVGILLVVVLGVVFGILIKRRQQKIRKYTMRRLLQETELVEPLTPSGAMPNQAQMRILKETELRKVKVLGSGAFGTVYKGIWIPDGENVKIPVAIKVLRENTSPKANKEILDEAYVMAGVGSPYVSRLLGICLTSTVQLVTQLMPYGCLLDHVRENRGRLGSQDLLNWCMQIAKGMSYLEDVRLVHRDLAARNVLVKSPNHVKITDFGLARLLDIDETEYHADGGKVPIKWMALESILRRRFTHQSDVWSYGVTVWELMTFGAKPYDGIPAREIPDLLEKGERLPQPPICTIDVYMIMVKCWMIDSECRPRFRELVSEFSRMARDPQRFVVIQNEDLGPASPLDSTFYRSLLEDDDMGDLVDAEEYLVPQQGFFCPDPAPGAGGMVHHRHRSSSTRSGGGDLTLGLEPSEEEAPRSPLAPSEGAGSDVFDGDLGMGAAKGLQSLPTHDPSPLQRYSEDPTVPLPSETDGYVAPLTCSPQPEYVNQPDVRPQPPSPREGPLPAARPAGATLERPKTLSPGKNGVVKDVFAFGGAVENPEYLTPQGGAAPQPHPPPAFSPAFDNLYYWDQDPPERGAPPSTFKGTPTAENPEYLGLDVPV
How it was run: as §1

T1 sequence (P00533 25-1210): as the sequence (P00533 25-1210) above

IC50 (EGFR-wt): 324 ± 50 nM
% inhibition of control activity, PI3K (Eurofins) (PI3K): -6.7 (2.3) % inhibition
% control, EGFR (DiscoverX) (EGFR): 17 % control
remaining binding at 10 µM (BRAF): ≥ 99%
% control, VEGFR2 (DiscoverX) (VEGFR2): 99 % control
% control, ErbB2 (DiscoverX) (ErbB2): 21 % control
Compound: COC(=O)Cc1ccc(Oc2ncnc3sc4c(c23)CC[C@@H](C)C4)cc1 (racemic) [DS39984]
